Test results: patent US11524951B2, “2-(2,4,5-substituted-anilino)pyrimidine compounds” (AstraZeneca AB, priority 2011, dated 2022)

Columns and labels:
Type in all cases: cell-based
[1] = molecular target: T1, Exon19 deletion EGFR (Homo sapiens, UniProt P00533, DEL746-750); assay: Exon19 deletion EGFR (activating single mutant) cellular phosphorylation assay; conditions: PC9 human lung cells (Exon 19 deletion EGFR); endogenous p-EGFR in cell lysates by ELISA; 2 h with compound; read-out: Assay 1 (IC50)
T1 construct: Assays to measure cellular phosphorylation of endogenous p-EGFR in cell lysates; endogenous in cells; host or cells: PC9 (human lung cell line)
T1 sequence (P00533 with tags, fused parts or gaps DEL746-750): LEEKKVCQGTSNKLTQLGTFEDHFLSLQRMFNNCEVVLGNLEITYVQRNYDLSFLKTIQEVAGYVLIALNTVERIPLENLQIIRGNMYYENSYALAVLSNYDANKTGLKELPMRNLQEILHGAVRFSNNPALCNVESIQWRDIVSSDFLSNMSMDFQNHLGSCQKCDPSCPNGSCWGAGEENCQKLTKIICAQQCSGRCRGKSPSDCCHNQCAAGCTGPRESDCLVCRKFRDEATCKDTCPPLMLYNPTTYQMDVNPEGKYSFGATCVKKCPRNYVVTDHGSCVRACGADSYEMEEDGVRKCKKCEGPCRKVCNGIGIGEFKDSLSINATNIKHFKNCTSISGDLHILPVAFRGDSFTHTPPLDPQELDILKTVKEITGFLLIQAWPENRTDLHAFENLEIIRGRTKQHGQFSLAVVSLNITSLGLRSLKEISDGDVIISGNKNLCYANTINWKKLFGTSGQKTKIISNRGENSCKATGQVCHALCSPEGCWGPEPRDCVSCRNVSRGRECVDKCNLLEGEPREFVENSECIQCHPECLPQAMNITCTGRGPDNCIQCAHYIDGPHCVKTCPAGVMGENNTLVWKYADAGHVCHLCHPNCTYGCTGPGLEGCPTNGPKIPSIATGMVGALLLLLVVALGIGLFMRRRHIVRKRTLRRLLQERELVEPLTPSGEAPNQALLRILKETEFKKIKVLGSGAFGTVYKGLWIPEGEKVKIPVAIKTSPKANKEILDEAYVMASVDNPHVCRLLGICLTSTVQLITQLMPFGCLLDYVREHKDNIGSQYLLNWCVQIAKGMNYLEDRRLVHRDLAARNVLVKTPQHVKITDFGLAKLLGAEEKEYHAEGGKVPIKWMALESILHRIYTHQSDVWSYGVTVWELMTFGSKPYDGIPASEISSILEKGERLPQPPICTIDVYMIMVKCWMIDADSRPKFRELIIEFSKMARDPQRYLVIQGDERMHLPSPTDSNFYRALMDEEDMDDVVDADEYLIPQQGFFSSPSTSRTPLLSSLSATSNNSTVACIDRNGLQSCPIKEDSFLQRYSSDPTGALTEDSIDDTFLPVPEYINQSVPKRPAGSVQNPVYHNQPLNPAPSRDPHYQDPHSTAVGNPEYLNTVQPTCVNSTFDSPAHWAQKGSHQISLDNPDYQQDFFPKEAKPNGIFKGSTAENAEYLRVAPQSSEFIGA
Procedure: Assay 1: Exon19 Deletion EGFR (Activating Single Mutant) Cellular Phosphorylation Assay
The human lung cell line PC9 (Exon 19 deletion EGFR) were obtained from the American type Culture Collection. […] Cells were grown in a humidified incubator at 37° C. with 5% CO2. Assays to measure cellular phosphorylation of endogenous p-EGFR in cell lysates were carried out according to the protocol described in the R&D Systems DuoSet IC Human Phospho-EGF R ELISA (R&D Systems catalogue number #DYC1095). 40 μL of cells were seeded (10000 cells/well) in growth medium in Corning black, clear-bottomed 384-well plates and incubated at 37° C. with 5% CO2 overnight. […] Plates were incubated for a further 2 h, then following aspiration of medium, 40 μL 1× lysis buffer was added to each well. Greiner black high bind 384-well plates were coated with capture antibody and then blocked with 3% BSA. Following removal of block, […], of lysate were transferred to the Greiner black high bind 384-well plates and incubated for 2 hours. Following aspiration and washing of the plates with PBS, 20 μL of detection antibody were added and incubated for 2 hours. […] The data obtained with each compound was exported into a suitable software package (such as Origin) to perform curve fitting analysis.

[2] = molecular target: T2, L858R/T790M EGFR (Homo sapiens, UniProt P00533, L858R/T790M); assay: L858R/T790M EGFR (double mutant) cellular phosphorylation assay; conditions: NCI-H1975 human lung cells; endogenous p-EGFR in cell lysates by ELISA; 2 h with compound
T2 construct: Assays to measure cellular phosphorylation of endogenous p-EGFR in cell lysates; endogenous in cells; host or cells: NCI-H1975 (human lung cell line)
T2 sequence (P00533 25-1210 T790M/L858R): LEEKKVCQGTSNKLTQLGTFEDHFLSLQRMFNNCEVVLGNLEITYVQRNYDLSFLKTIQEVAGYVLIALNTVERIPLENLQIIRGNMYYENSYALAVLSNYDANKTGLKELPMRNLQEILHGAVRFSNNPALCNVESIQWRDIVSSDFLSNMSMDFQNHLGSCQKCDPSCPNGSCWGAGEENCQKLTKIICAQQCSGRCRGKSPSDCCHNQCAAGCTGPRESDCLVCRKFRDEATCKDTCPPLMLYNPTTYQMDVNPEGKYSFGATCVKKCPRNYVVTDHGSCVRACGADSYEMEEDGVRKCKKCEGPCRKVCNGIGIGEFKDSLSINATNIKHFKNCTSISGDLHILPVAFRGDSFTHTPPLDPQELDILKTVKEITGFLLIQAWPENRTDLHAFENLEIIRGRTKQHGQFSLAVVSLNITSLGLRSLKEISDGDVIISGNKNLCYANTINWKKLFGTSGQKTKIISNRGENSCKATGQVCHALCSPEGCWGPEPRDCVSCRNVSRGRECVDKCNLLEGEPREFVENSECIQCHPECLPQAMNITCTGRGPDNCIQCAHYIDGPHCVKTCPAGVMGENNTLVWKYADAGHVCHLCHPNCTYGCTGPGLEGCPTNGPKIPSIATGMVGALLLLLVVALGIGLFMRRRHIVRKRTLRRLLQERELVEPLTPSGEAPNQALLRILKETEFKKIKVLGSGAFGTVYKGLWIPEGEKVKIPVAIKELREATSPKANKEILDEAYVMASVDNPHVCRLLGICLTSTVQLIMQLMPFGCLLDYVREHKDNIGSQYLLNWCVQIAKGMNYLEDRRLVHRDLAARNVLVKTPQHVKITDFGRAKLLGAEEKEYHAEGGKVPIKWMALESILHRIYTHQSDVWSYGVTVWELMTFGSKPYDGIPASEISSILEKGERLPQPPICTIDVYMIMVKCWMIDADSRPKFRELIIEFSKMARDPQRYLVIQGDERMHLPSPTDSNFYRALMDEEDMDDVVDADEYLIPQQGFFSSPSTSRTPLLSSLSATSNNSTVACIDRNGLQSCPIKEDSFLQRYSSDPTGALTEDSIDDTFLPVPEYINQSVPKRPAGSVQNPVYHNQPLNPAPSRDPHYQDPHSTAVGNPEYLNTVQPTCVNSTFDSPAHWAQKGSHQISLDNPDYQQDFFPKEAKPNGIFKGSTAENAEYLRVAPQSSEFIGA
Procedure: Assay 2: L858R/T790M EGFR (Double Mutant) Cellular Phosphorylation Assay
The human lung cell lines NCI-H1975 were obtained from the American type Culture Collection. […] Cells were grown in a humidified incubator at 37° C. with 5% CO2.
Assays to measure cellular phosphorylation of endogenous p-EGFR in cell lysates were carried out according to the protocol described in the R&D Systems DuoSet IC Human Phospho-EGF R ELISA (R&D Systems catalogue number #DYC1095).
40 μL of cells were seeded (10000 cells/well) in growth medium in Corning black, clear-bottomed 384-well plates and incubated at 37° C. with 5% CO2 overnight. […] Plates were incubated for a further 2 h and following aspiration of medium, 40 μL 1× lysis buffer was added to each well. Greiner black high bind 384-well plates were coated with capture antibody and then blocked with 3% BSA. Following removal of block, 15 μL of lysate were transferred to the Greiner black high bind 384-well plates and incubated for 2 hours. Following aspiration and washing of the plates with PBS, 20 μL of detection antibody were added and incubated for 2 hours. […] 20 μL QuantaBlu stop solution were added to plates and fluorescence read on an Envision plate reader using
The data obtained with each compound was exported into a suitable software package (such as Origin) to perform curve fitting analysis.

[3] = molecular target: T3, Wild-type EGFR (Homo sapiens, UniProt P00533); assay: Wild-type EGFR cellular phosphorylation assay; conditions: LoVo human colon cells; endogenous p-EGFR in cell lysates by ELISA; 2 h with compound, then stimulated 100 ng/ml for 10 minutes; read-out: Assay 3 (IC50)
T3 construct: Assays to measure cellular phosphorylation of endogenous p-EGFR in cell lysates; endogenous in cells; host or cells: LoVo (human colon cell line)
T3 sequence (P00533 25-1210): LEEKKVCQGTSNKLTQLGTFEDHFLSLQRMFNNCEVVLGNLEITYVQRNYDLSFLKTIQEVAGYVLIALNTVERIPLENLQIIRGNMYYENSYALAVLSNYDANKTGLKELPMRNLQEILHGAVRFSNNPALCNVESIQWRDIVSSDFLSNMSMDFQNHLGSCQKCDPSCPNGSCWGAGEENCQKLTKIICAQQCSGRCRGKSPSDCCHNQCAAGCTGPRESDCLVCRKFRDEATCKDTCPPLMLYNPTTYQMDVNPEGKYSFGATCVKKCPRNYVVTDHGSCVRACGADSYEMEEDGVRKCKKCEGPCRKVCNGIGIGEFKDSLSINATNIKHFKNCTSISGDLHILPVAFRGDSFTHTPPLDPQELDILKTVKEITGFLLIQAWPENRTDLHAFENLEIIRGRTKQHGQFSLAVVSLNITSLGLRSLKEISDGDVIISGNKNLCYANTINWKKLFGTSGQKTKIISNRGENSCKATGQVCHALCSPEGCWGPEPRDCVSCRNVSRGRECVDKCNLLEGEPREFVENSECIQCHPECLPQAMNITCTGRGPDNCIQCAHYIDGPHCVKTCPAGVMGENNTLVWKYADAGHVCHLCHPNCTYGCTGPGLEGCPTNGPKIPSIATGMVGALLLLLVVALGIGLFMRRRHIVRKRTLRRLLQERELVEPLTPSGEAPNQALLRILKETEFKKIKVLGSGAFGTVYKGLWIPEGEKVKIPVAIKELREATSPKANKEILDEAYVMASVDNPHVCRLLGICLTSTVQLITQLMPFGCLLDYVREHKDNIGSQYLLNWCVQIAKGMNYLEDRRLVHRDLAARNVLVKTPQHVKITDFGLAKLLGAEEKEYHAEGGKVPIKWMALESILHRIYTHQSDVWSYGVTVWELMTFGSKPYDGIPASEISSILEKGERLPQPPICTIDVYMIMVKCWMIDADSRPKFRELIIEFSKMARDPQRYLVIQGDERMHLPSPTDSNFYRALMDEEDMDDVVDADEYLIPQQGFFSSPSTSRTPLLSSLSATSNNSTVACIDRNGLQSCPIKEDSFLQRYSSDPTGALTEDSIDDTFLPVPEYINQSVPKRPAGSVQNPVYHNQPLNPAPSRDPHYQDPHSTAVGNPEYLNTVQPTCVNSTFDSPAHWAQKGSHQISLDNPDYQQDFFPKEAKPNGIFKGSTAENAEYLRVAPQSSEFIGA
Procedure: Assay 3: Wild-Type EGFR Cellular Phosphorylation Assay
The human colon cell line LoVo were obtained from the American type Culture Collection. […] Cells were grown in a humidified incubator at 37° C. with 5% CO2. Assays to measure cellular phosphorylation of endogenous p-EGFR in cell lysates were carried out according to the protocol described in the R&D Systems DuoSet IC Human Phospho-EGF R ELISA (R&D Systems catalogue number #DYC1095). 40 μL of cells were seeded (15000 cells/well) in growth medium in Corning black, clear-bottomed 384-well plates and incubated at 37° C. with 5% CO2 overnight. […] Plates were incubated for a further 2 h then stimulated with 100 ng/ml for 10 minutes and following aspiration of medium, 40 μL 1× lysis buffer was added to each well. Greiner black high bind 384-well plates were coated with capture antibody and then blocked with 3% BSA. […] Following aspiration and washing of the plates with PBS, 20 μL of detection antibody were added and incubated for 2 hours. […] The data obtained with each compound was exported into a suitable software package (such as Origin) to perform curve fitting analysis.

C=CC(=O)Nc1cc(Nc2ncc(C)c(-c3cnn4ccccc34)n2)c(OC)cc1C1=CCN(C)CC1 [Example 1, N-{4-Methoxy-2-[1-methyl-3,6-dihydro-2H-pyridin-4-yl]-5-[(5-methyl-4-pyrazolo[1,5-a]pyridin-3-ylpyrimidin-2-yl)amino]phenyl}prop-2-enamide]
IC50 [1]: 7.61 nM | IC50 [2]: 4.96 nM | IC50 [3]: 474 nM

C=CC(=O)Nc1cc(Nc2ncc(Cl)c(-c3c[nH]c4ccccc34)n2)c(OC)cc1C1=CCN(C)CC1 [Example 2, N-(5-{[5-Chloro-4-(1H-indol-3-yl)pyrimidin-2-yl]amino}-4-methoxy-2-[1-methyl-3,6-dihydro-2H-pyridin-4-yl]phenyl)prop-2-enamide]
IC50 [1]: 1.29 nM | IC50 [2]: 1.5 nM | IC50 [3]: 41.2 nM

C=CC(=O)Nc1cc(Nc2ncc(C)c(-c3c[nH]c4ccccc34)n2)c(OC)cc1N1CCN(C)CC1 [Example 3, N-(5-{[4-(1H-Indol-3-yl)-5-methylpyrimidin-2-yl]amino}-4-methoxy-2-[4-methylpiperazin-1-yl]phenyl)prop-2-enamide]
IC50 [1]: 10.5 nM | IC50 [2]: 15.5 nM | IC50 [3]: 522 nM

C=CC(=O)Nc1cc(Nc2ncc(Cl)c(-c3cnn4ccccc34)n2)c(OC)cc1N1CC[C@@H](N(C)C)C1 [Example 4, N-{5-[(5-Chloro-4-pyrazolo[1,5-a]pyridin-3-ylpyrimidin-2-yl)amino]-2-[(3R)-3-dimethylaminopyrrolidin-1-yl]-4-methoxyphenyl}prop-2-enamide]
IC50 [1]: 12.7 nM | IC50 [2]: 1.6 nM | IC50 [3]: 510 nM

C=CC(=O)Nc1cc(Nc2ncc(Cl)c(-c3cnn4ccccc34)n2)c(OC)cc1N(C)CCN(C)C [Example 6, N-{5-[(5-Chloro-4-pyrazolo[1,5-a]pyridin-3-ylpyrimidin-2-yl)amino]-2-[2-dimethylaminoethyl-methylamino]-4-methoxyphenyl}prop-2-enamide]
IC50 [1]: 2.18 nM | IC50 [2]: 0.669 nM | IC50 [3]: 196 nM

C=CC(=O)Nc1cc(Nc2ncc(Cl)c(-c3cnn4ccccc34)n2)c(OC)cc1N1CC[C@@H]2CN(C)C[C@@H]21 [Example 7, N-{2-[(3aR,6aR)-5-Methyl-2,3,3a,4,6,6a-hexahydropyrrolo[3,2-c]pyrrol-1-yl]-5-[(5-chloro-4-pyrazolo[1,5-a]pyridin-3-ylpyrimidin-2-yl)amino]-4-methoxyphenyl}prop-2-enamide]
IC50 [1]: 3.26 nM | IC50 [2]: 0.682 nM | IC50 [3]: 161 nM

C=CC(=O)Nc1cc(Nc2ncc(Cl)c(-c3cnn4ccccc34)n2)c(OC)cc1N1CC2(CCCN2C)C1 [Example 8, N-{5-[(5-Chloro-4-pyrazolo[1,5-a]pyridin-3-ylpyrimidin-2-yl)amino]-4-methoxy-2-[5-methyl-2,5-diazaspiro[3.4]octan-2-yl]phenyl}prop-2-enamide]
IC50 [1]: 22.4 nM | IC50 [2]: 5.48 nM | IC50 [3]: 1170 nM

C=CC(=O)Nc1cc(Nc2ncc(Cl)c(-c3cnn4ccccc34)n2)c(OC)cc1C1=CCN(C)CC1 [Example 9, N-{5-[(5-Chloro-4-pyrazolo[1,5-a]pyridin-3-ylpyrimidin-2-yl)amino]-4-methoxy-2-[1-methyl-3,6-dihydro-2H-pyridin-4-yl]phenyl}prop-2-enamide]
IC50 [1]: 9.96 nM | IC50 [2]: 2.82 nM | IC50 [3]: 874 nM

C=CC(=O)Nc1cc(Nc2ncc(Cl)c(-c3cnn4ccccc34)n2)c(OC)cc1N1CCN(CC(=O)N(C)C)CC1 [Example 10, N-{5-[(5-Chloro-4-pyrazolo[1,5-a]pyridin-3-ylpyrimidin-2-yl)amino]-2-[4-(2-dimethylamino-2-oxoethyl)piperazin-1-yl]-4-methoxyphenyl}prop-2-enamide]
IC50 [1]: 73.8 nM | IC50 [2]: 40 nM | IC50 [3]: 8430 nM

C=CC(=O)Nc1cc(Nc2ncc(Cl)c(-c3cnn4ccccc34)n2)c(OC)cc1N1CCN(C(=O)[C@H](C)N)CC1 [Example 11, (S)—N-{2-[4-(2-Aminopropanoyl)piperazin-1-yl]-5-[(5-chloro-4-pyrazolo[1,5-a]pyridin-3-ylpyrimidin-2-yl)amino]-4-methoxyphenyl}prop-2-enamide]
IC50 [1]: 28.5 nM | IC50 [2]: 18.7 nM | IC50 [3]: 1600 nM

C=CC(=O)Nc1cc(Nc2ncc(Cl)c(-c3cnn4ccccc34)n2)c(OC)cc1N1CC[C@H](N(C)C)C1 [Example 12, N-{5-[(5-Chloro-4-pyrazolo[1,5-a]pyridin-3-ylpyrimidin-2-yl)amino]-2-[(3S)-3-dimethylaminopyrrolidin-1-yl]-4-methoxyphenyl}prop-2-enamide]
IC50 [1]: 36.1 nM | IC50 [2]: 5.82 nM | IC50 [3]: 1390 nM

C=CC(=O)Nc1cc(Nc2ncc(C#N)c(-c3cnn4ccccc34)n2)c(OC)cc1N1CCN(C)CC1 [Example 14, N-{5-[(5-Cyano-4-pyrazolo[1,5-a]pyridin-3-ylpyrimidin-2-yl)amino]-4-methoxy-2-[4-methylpiperazin-1-yl]phenyl}prop-2-enamide]
IC50 [1]: 53.3 nM | IC50 [2]: 19.1 nM | IC50 [3]: 12500 nM

C=CC(=O)Nc1cc(Nc2nccc(-c3c[nH]c4ccccc34)n2)c(OC)cc1N1CCN(C)CC1 [Example 15, N-(5-{[4-(1H-Indol-3-yl)pyrimidin-2-yl]amino}-4-methoxy-2-{4-methylpiperazin-1-yl}phenyl)prop-2-enamide]
IC50 [1]: 14 nM | IC50 [2]: 55.2 nM | IC50 [3]: 1070 nM

C=CC(=O)Nc1cc(Nc2nccc(-c3cnn4ccccc34)n2)c(OC)cc1N1CCN(C)CC1 [Example 16, N-[4-Methoxy-2-(4-methylpiperazin-1-yl)-5-[(4-pyrazolo[1,5-a]pyridin-3-ylpyrimidin-2-yl)amino]phenyl]prop-2-enamide]
IC50 [1]: 144 nM | IC50 [2]: 70.5 nM | IC50 [3]: > 18900 nM

C=CC(=O)Nc1cc(Nc2ncc(Cl)c(-c3c[nH]c4ccccc34)n2)c(OC)cc1N1CCN(C)CC1 [Example 17, N-(5-{[5-Chloro-4-(1H-indol-3-yl)pyrimidin-2-yl]amino}-4-methoxy-2-{4-methylpiperazin-1-yl}phenyl)prop-2-enamide]
IC50 [1]: 23.4 nM | IC50 [2]: 5.64 nM | IC50 [3]: 772 nM

C=CC(=O)Nc1cc(Nc2ncc(C)c(-c3cn(C)c4ccccc34)n2)c(OC)cc1N1CCN(C)CC1 [Example 18, N-(4-Methoxy-5-{[5-methyl-4-(1-methylindol-3-yl)pyrimidin-2-yl]amino}-2-{4-methylpiperazin-1-yl}phenyl)prop-2-enamide]
IC50 [1]: 66.4 nM | IC50 [2]: 31.4 nM | IC50 [3]: 2700 nM

C=CC(=O)Nc1cc(Nc2ncc(C)c(-c3cn(C)c4ccccc34)n2)c(OC)cc1N(C)CCN(C)C [Example 19, N-(2-{2-Dimethylaminoethyl-methylamino}-4-methoxy-5-{[5-methyl-4-(1-methylindol-3-yl)pyrimidin-2-yl]amino}phenyl)prop-2-enamide]
IC50 [1]: 2.15 nM | IC50 [2]: 1.46 nM | IC50 [3]: 70.8 nM

C=CC(=O)Nc1cc(Nc2ncc(C)c(-c3cn(C)c4ccccc34)n2)c(OC)cc1N1CC[C@@H](N(C)C)C1 [Example 20, N-(2-{(3R)-3-Dimethylaminopyrrolidin-1-yl}-4-methoxy-5-{[5-methyl-4-(1-methylindol-3-yl)pyrimidin-2-yl]amino}phenyl)prop-2-enamide]
IC50 [1]: 7.49 nM | IC50 [2]: 5.28 nM | IC50 [3]: 193 nM
